The subject of data set [1] is chick embryo chorioallantoic membrane. Kind of data set: Chick embryo chorioallantoic membrane (CAM) angiogenesis assay. Type of data set: in vivo, chicken. To be noted: 48 h; for relative percent inhibition of angiogenesis: total vessel length vs control, P<0.001, 15–20 eggs. Here is the method: Figure 7 Inhibition of in vivo angiogenesis by HB-19 in chick embryo chorioallantoic membrane (CAM) assay. Macroscopic observation of the angiogenic response induced by gelatin sponges (1 cm^2), soaked with 40 µl of PBS (Control) or 40 µl PBS containing HB-19 at concentrations of 10, 20 and 50 µM (corresponding to 0.4, 0.8 and 2 nmols of HB-19, respectively). After 48 h, CAMs were fixed and excised from the eggs . Photographs were taken and the total length of the vessels was measured using the Image PC image-analysis software (Scion Corporation, USA)[48]. Each sample was tested three times using 15–20 eggs for each data point. The relative percent inhibition (P<0.001) of angiogenesis compared to the control was 27, 36 and 51% in the presence of 0.4, 0.8 and 2 nmols of HB-19, respectively.
Leghorn fertilized eggs (Pindos, Greece) were incubated for 4 days at 37°C. A window was then opened on the eggshell, exposing the CAM. The window was covered with sterile tape, and the eggs were returned to the incubator. On day 9 of embryo development, 20 µl of distilled water alone as a control or containing HB-19 was applied on a 1-cm2 area of the CAM inside a silicon ring. After 48 hours of incubation at 37°C, CAMs were fixed in situ with saline-buffered formalin, excised from the eggs, placed on slides, and left to dry in air. Photographs were taken and the total length of the vessels was measured as described.

For data set [2], the system named is cells (surface nucleolin). The data set is described as follows: Internalization of nucleolin ligands (quoted). It is filed as cell-based. To be noted: HB-19, 20°C; compared with GROs.
The nature of data set [3]: Blood cell count in tumor bearing mice. The following applies: 3 times/week, 8 weeks. Type of data set: in vivo, mouse. Here is the method: Figure 8 HB-19 inhibits tumor growth in the nude mice. (A) HB-19 inhibits the growth of MDA-MB-231 tumor-cell xenografts. Cells (2×10^6) were injected subcutaneously into the right flank of female nude mice. Two weeks later, mice with a palpable tumor of approximately 40 mm^3 in volume were randomly separated into three groups (n = 5) and were given peritumoral injections 3 times/week of 0.1 ml PBS alone (Control), HB-19 (5 mg/kg), or Tamoxifen (Tmx) 10 mg/kg) for 6 weeks. (B) HB-19 inhibits the growth of MDA-MB-435 tumor-cell xenografts. Cells (1×10^6) were injected in the mammary fat pad of female nude mice. Two weeks later, mice with a palpable tumor were randomly separated into three groups (n = 10) and were given intraperitoneal injections 3 times/week of 0.1 ml PBS alone (Control), HB-19 (5 mg/kg), or 5-fluouracil (5-FU, 40 mg/kg) for 8 weeks. At the end of each experiment (in A and B), mice were sacrificed and the tumors were excised and weighed. The results are presented as the mean weight ±standard deviation (±S.D.) obtained from the number of mice in each group. (C, D) Inhibition of tumor development in mice treated by intraperitoneal (i.p.) and subcutaneous (s.c.) administration of HB-19. MDA-MB-231 tumor bearing mice in three groups (n = 10) were treated with HB-19 (10 mg/kg) by i.p. or s.c. injections, 3 times/week for 28 days. […] Statistical significance: *p<0.05, **p<0.01, ***p<0.001.
Blood samples were collected by cardiac puncture. Hematocrit level, white blood cells and platelets count were determined individually in whole blood anticoagulated with EDTA (1 mM) at room temperature. Blood cell count was analyzed with an automated flow cytometric blood cell counter (Cell-Dyn 3500, Abbott Laboratories, Rungis, France).

A further data set relates to MDA-MB-435 cells. The data set is described as follows: Colony formation in soft agar, MDA-MB-435. The following applies: 5 µM HB-19, MDA-MB-435. Type of data set: cell-based, human. Here is the method:
Figure 4 HB-19 inhibits colony formation in soft agar by tumor cell lines. (A) MDA-MB-231 cells in culture medium were seeded in triplicate in the absence (histogram C) or presence of 0.1, 0.5 and 1 of µM HB-19, or 0.1 µM of the anti-nucleolin mAb MS-3 or control IgG, or 10 µM bisphosphonate (BisP). (B) Various tumor cell lines (as indicated) in culture medium were seeded in triplicate in the absence (histogram Control) or presence of 5 µM HB-19. After 10–21 days, colonies with diameters greater than 50 µm were scored as positive. Statistical significance: *0.01<p<[…], **p<0.01, ***p<0.001.
Carcinoma cells (2×10^4) were mixed in 0.35% top agar, diluted in complete medium (DMEM containing 10% FBS) in the absence or presence of HB-19, and plated onto 0.8% bottom agar into 12-well plates. Cells were treated twice a week during 10 to 21 days. Colonies with diameters greater than 50 µm were scored as positive using a phase contrast microscope equipped with a measuring grid at magnification 100× [45]. The number of colonies was determined by analyzing 5 fields/well from 3 wells and the test was repeated at least twice.

Regarding “pseudo-tripeptide Lysψ(CH2N)-Pro-Arg coupled to a template (H2NLys-Lys-Lys-Gly-Pro-Lys-Glu-Lys-AhxCONH2) [HB-19, pseudopeptide presenting pentavalently the pseudo-tripeptide Lysψ(CH2N)-Pro-Arg coupled to a template]”, the “relative percent inhibition of angiogenesis” value in data set [1] (0.4 nmol HB-19 (10 µM, 40 µl)) is 27%; in data set [1] (0.8 nmol HB-19 (20 µM, 40 µl)), 36%; in data set [1] (2 nmol HB-19 (50 µM, 40 µl)), 51%. Besides, in data set [1] (HB-19 10, 20 and 50 µM), the “blood vessel branching and development” value was “impaired significantly blood vessel branching and development in a dose-dependent manner”. In data set [2], the “localization at 20°C” value is reported as “remains aggregated at the plasma membrane”. The Eosinophils in data set [3] (HB-19 5 mg/kg or 5-FU 40 mg/kg i.p., mean ± SD, n = 10, untreated 0.01±0.02) is 0.03±0.04 ×10^3/µl. The Basophils in data set [3] (HB-19 5 mg/kg or 5-FU 40 mg/kg i.p., mean ± SD, n = 10, untreated 0.10±0.06) is recorded as 0.09±0.04 ×10^3/µl. Moreover, the Monocytes in data set [3] (HB-19 5 mg/kg or 5-FU 40 mg/kg i.p., mean ± SD, n = 10, untreated 0.20±0.09) is 0.23±0.07 ×10^3/µl. The Neutrophils in data set [3] (HB-19 5 mg/kg or 5-FU 40 mg/kg i.p., mean ± SD, n = 10, untreated 0.89±0.39, 5-FU p<0.05) is 1.03±0.44 ×10^3/µl. Also, the Lymphocytes in data set [3] (HB-19 5 mg/kg or 5-FU 40 mg/kg i.p., mean ± SD, n = 10, untreated 1.84±0.78, 5-FU p<0.01) is recorded as 1.98±1.01 ×10^3/µl. In addition, in data set [3] (HB-19 5 mg/kg or 5-FU 40 mg/kg i.p., mean ± SD, n = 10, untreated 3.05±1.29, 5-FU p<0.05), the Leukocytes is 3.36±1.28 ×10^3/µl. Also, the Erythrocytes in data set [3] (HB-19 5 mg/kg or 5-FU 40 mg/kg i.p., mean ± SD, n = 10, untreated 8.73±0.26, 5-FU p<0.0001) is recorded as 8.31±1.05 ×10^6/µl. Moreover, the Platelets in data set [3] (HB-19 5 mg/kg or 5-FU 40 mg/kg i.p., mean ± SD, n = 10, untreated 1041±91) is given as 1037± 225 ×10^3/µl. For the same substance, in data set [3] (HB-19 5 mg/kg, intraperitoneal), the “effect on number of platelets, erythrocytes and leukocytes” value was “no effect on the number of platelets, erythrocytes, and leukocytes”. The colony formation result in the data set on MDA-MB-435 cells is on record as “reduced markedly”.

For the origin of these results see publication PMC2424174, “Suppression of Tumor Growth and Angiogenesis by a Specific Antagonist of the Cell-Surface Expressed Nucleolin” (PLoS ONE, 2008).
